Results from PMC7725003, “Systematically Studying the Optimal Amino Acid Distribution Patterns of the Amphiphilic Structure by Using the Ultrashort Amphiphiles” (Frontiers in Microbiology, 2020).
Where no end group is shown, it is not given here.

Key:
[1] = tested on: S. typhimurium 14028; type: cell-based, Salmonella typhimurium; settings: 14028, 24 h
Method in brief: (§1)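 Modified NCCLS broth microdilution: mid-log bacteria diluted in MHB to 0.5–1 × 10^6 CFU mL^–1, mixed with peptides serially diluted in 0.2% BSA, incubated 24 h at 37°C. MIC taken as lowest concentration inhibiting 95% of growth by absorbance at 492 nm.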

[2] = tested on: S. typhimurium 7731; type: cell-based, Salmonella typhimurium; settings: 7731, 24 h
Method in brief: as §1

[3] = tested on: S. pullorum 7913; type: cell-based, Salmonella pullorum; settings: 7913, 24 h
Method in brief: as §1

[4] = tested on: P. aeruginosa 27853; type: cell-based, Pseudomonas aeruginosa; settings: 27853, 24 h
Method in brief: as §1

[5] = tested on: E. coli K88
Method in brief: (§2)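 Peptides were serially diluted in 0.2% BSA and added to mid-logarithmic cells diluted in MHB to 0.5–1 × 10^6 CFU mL^–1. Assays followed an adapted NCCLS protocol.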

[6] = tested on: E. coli K99
Method in brief: as §2

[7] = tested on: S. aureus 25923; type: cell-based, Staphylococcus aureus; settings: 25923, 24 h
Method in brief: as §1

[8] = tested on: S. aureus 29213; type: cell-based, Staphylococcus aureus; settings: 29213, 24 h
Method in brief: as §1

[9] = tested on: B. subtilis 63501; type: cell-based, Bacillus subtilis; settings: 63501, 24 h
Method in brief: as §1

[10] = tested on: Listeria monocytogenes CGMCC 1.1075; type: cell-based; settings: CGMCC 1.1075, 24 h
Method in brief: as §1

[11] = tested on: all of the tested bacterial strains; assay: Geometric mean of MICs, all tested bacterial strains; type: cell-based; settings: for GM, All: geometric mean of MICs across all tested strains; for TI, All: therapeutic index TI = MHC/GM MIC
Method in brief: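 Per strain, MIC came from absorbance at 492 nm after 24 h at 37°C (≥95% inhibition), using mid-log inoculum of 0.5–1 × 10^6 CFU mL^–1 in MHB and peptide diluted in 0.2% BSA. MBC (>99.9% killed) came from overnight agar plating, and values are geometric means across strains.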

[12] = tested on: E. coli ATCC 25922; assay: Salt sensitivity assay (MIC); type: cell-based, Escherichia coli; settings: for MIC, FeCl3: 4 μM FeCl3; for MIC, NH4Cl: 6 μM NH4Cl; for MIC, ZnCl2: 8 μM ZnCl2; for MIC, MgCl2: 1 mM MgCl2; for MIC, CaCl2: 2 mM CaCl2; for MIC, KCl: 4.5 mM KCl; for MIC, NaCl: 150 mM NaCl; for MIC, Control: no added salt, three independent assays
Method in brief: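 Peptides diluted serially in 0.2% BSA solution were combined at identical volumes with mid-logarithmic E. coli ATCC 25922 in MHB (0.5–1 × 10^6 CFU mL^–1) in 96-well plates, with or without a physiological salt. Plates were incubated for 24 h at 37°C. MIC was the lowest concentration inhibiting 95% of growth, measured as absorbance at 492 nm on a microplate reader.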

[13] = tested on: E. coli 25922; assay: Time-kill kinetics; type: cell-based, Escherichia coli; settings: 1 × MIC concentration (Figure 5 legend: 1× MBC); mean of three independent experiments
From the text: (§3) The kinetics of the sterilization activity of the peptide was further evaluated. […] The results of the kinetic were the mean values of three independent experiments, and each independent experiment contained three technical replicates.

[14] = tested on: S. aureus 29213; assay: Time-kill kinetics; type: cell-based, Staphylococcus aureus; settings: 1 × MIC concentration (Figure 5 legend: 1× MBC); mean of three independent experiments
From the text: as §3

[15] = tested on: P. aeruginosa ATCC 27853; type: cell-based, Pseudomonas aeruginosa; settings: after 30 sequential passages in sub-MBC concentrations
Procedure: Finally, P. aeruginosa ATCC 27853 was used as the model of the drug resistance study. […] The MBC values of the drugs against every two passage’s cells were tested. As a control, MBCs were also tested using cells that were serially passaged in fresh MHB without drugs. The assay was conducted independently in triplicate with three biological replicates.

[16] = tested on: Gram-negative bacteria; settings: geometric mean of MBCs, 9 Gram-negative strains (Table 2)
[17] = MHB, 24 h 37°C, 95% growth inhibition
[18] = value in brackets, >99.9% of cells killed

Substance | MBC [1] | MIC [1] | MBC [2] | MIC [2] | MBC [3] | MIC [3] | MBC [4] | MIC [4] | MBC [7] | MIC [7] | MBC [8] | MIC [8] | MBC [9] | MIC [9] | MBC [10] | MIC [10] | GM, All [11] | TI, All [11] | MIC, FeCl3 [12] | MIC, NH4Cl [12] | also measured
RLRLRLRLL-NH2 [L5] | 8 µM | 4 µM | 8 µM | 4 µM | 4 µM | 2 µM | 16 µM | 8 µM | 16 µM | 8 µM | 16 µM | 8 µM | 2 µM | 1 µM | 8 µM | 4 µM | 4.18 µM | 61.24 | 0.5 µM | 0.5 µM | MIC [5, 17]: 2 µM; MBC [5, 18]: 4 µM; MIC [6, 17]: 4 µM; MBC [6, 18]: 8 µM; MIC, ZnCl2 [12]: 0.5 µM; MIC, MgCl2 [12]: 0.5 µM; MIC, CaCl2 [12]: 2 µM; MIC, KCl [12]: 0.5 µM; MIC, NaCl [12]: 4 µM; MIC, Control [12]: 2 µM; time to obliterate the growth of 99.99% of bacteria [13]: ≤ 3 min; time to clear off the growth of 99.99% of bacteria [14]: ≤ 0.08 min; resistance development [15]: minimal; GM MBC [16]: 6.35 µM
RWRWRWRWW-NH2 [W5] | 8 µM | 4 µM | 8 µM | 4 µM | 4 µM | 2 µM | 8 µM | 4 µM | 4 µM | 2 µM | 4 µM | 2 µM | 2 µM | 1 µM | 4 µM | 2 µM | 2.38 µM | 107.56 | 4 µM | 4 µM | MIC, ZnCl2 [12]: 4 µM; MIC, MgCl2 [12]: 2 µM; MIC, CaCl2 [12]: 4 µM; MIC, KCl [12]: 4 µM; MIC, NaCl [12]: 4 µM; MIC, Control [12]: 2 µM; time to obliterate the growth of 99.99% of bacteria [13]: ≤ 0.25 min; time to clear off the growth of 99.99% of bacteria [14]: ≤ 3 min; resistance development [15]: minimal
